Assay results: patent US8129355B2, “Ketone ligands for modulating the expression of exogenous genes via an ecdysone receptor complex” (priority 2002, dated 2012)
Where two headings read alike, the source gives them in different places.

Key:
[1] = molecular target: T1, Bombyx mori EcR (VP16 fusion, switch construct CVBE) with 6XEcRE LacZ reporter (Bombyx mori, UniProt P49881); test: Z3 assay: β-galactosidase (LacZ) reporter gene fold induction in stably transformed human 293 kidney cells (clone Z3); type: cell-based
T1 construct: expressed in transfected cells; host or cells: Human 293 kidney (HEK-293) cells, retrovirally infected, clone Z3
T1 sequence (P49881 86-606 limits assumed): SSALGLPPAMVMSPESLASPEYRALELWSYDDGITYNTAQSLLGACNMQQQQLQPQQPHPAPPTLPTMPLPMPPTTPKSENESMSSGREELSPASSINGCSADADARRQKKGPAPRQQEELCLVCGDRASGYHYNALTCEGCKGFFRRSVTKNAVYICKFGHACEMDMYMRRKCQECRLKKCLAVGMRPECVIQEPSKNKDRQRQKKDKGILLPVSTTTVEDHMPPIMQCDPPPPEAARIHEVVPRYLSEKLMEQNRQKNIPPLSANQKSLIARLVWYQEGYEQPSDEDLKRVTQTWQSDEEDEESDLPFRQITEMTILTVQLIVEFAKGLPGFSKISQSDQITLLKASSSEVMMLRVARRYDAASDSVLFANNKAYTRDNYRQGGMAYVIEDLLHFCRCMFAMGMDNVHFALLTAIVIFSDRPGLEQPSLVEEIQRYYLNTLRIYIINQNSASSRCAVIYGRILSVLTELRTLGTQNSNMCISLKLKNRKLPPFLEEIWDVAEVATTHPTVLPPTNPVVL
T1 sequence (P19793 1-462 partner): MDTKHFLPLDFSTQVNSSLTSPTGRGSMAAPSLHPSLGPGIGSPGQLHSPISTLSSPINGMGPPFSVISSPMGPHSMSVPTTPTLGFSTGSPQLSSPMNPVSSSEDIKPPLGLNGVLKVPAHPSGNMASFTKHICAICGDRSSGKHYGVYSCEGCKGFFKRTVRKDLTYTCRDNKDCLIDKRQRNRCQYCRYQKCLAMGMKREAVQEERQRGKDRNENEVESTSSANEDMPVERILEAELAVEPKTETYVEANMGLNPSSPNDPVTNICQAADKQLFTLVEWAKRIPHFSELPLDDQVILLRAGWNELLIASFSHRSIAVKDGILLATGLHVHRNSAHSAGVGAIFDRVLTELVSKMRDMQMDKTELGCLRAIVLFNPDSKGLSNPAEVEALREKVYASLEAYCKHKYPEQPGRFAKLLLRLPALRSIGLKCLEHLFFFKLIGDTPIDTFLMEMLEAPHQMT
From the text: Dr. F. Gage provided a population of stably transformed cells containing CVBE and 6XEcRE as described in Suhr, S. T., Gil, E. B., Senut M. C., Gage, F. H. (1998) Proc. Natl. Acad. Sci. USA 95, 7999-804. Human 293 kidney cells, also referred to as HEK-293 cells, were sequentially infected with retroviral vectors encoding first the switch construct CVBE, and subsequently the reporter construct 6XEcRE Lac Z. The switch construct contained the coding sequence for amino acids 26-546 from Bombyx mori EcR (BE) (Iatrou) inserted in frame and downstream of the VP16 transactivation domain (VBE). A synthetic ATG start codon was placed under the control of cytomegalovirus (CVBE) immediate early promoter and flanked by long terminal repeats (LTR). The reporter construct contained six copies of the ecdysone response element (EcRE) binding site placed upstream of LacZ and flanked on both sides with LTR sequences (6XEcRE).
Dilution cloning was used to isolate individual clones. Clones were selected using 450 ug/mL G418 and 100 ng/mL puromycin. Individual clones were evaluated based on their response in the presence and absence of test ligands. Clone Z3 was selected for screening and SAR purposes.
Human 293 kidney cells stably transformed with CVBE and 6XEcRE lack were maintained in Minimum Essential Medium (Mediates, 10-010-CV) containing 10% FBS (Life Technologies, 26140-087), […] G418 (Mediates, 30-234-CR), and […] (Sigma, P-7255), at 37° C. in an atmosphere containing 5% CO2 and were subculture when they reached 75% confluence.
Z3 cells were seeded into 96-well tissue culture plates at a concentration of 2.5×10^3 cells per well and incubated at 37° C. in 5% CO2 for twenty-four hours. Stock solutions of ligands were prepared in DMSO. Ligand stock solutions were diluted 100 fold in media and 50 μL of this diluted ligand solution (33 μM) was added to cells. The final concentration of DMSO was maintained at […] in both controls and treatments.
Reporter gene expression was evaluated 48 hours after treatment of cells, β-galactosidase activity was measured using Gal Screen™ bioluminescent reporter gene assay system from Tropix (GSY1000).
Flanking both constructs are long terminal repeats, G418 and puromycin are selectable markers, CMV is the cytomegalovirus promoter, VBE is coding sequence for amino acids 26-546 from Bombyx mori EcR inserted downstream of the VP16 transactivation domain, 6×EcRE is six copies of the ecdysone response element, lacZ encodes for the reporter enzyme β-galactosidase. Suhr, S. T., Gil, E. B., Senut M. C., Gage, F. H. (1998) Proc. Natl. Acad. Sci. USA 95, 7999-804. Swevers, L., Drevet, J. R., Lunke, M. D., Iatrou, K. (1995) Insect Biochem. Mol. Biol. 25, 857-866.

[2] = molecular target: T2, GAL4 DBD-CfEcR(DEF)/VP16AD-MmRXRE (Choristoneura fumiferana, UniProt O77240); test: cell-based; conditions: for 13B3 Rel Max FI: maximum fold induction at any concentration relative to that of GS-E ligand; for fold induction at 33 µM: CHO, read-out: Fold Induction Average, 13B3 Assay (33 μM)
T2 sequence (O77240 1-513): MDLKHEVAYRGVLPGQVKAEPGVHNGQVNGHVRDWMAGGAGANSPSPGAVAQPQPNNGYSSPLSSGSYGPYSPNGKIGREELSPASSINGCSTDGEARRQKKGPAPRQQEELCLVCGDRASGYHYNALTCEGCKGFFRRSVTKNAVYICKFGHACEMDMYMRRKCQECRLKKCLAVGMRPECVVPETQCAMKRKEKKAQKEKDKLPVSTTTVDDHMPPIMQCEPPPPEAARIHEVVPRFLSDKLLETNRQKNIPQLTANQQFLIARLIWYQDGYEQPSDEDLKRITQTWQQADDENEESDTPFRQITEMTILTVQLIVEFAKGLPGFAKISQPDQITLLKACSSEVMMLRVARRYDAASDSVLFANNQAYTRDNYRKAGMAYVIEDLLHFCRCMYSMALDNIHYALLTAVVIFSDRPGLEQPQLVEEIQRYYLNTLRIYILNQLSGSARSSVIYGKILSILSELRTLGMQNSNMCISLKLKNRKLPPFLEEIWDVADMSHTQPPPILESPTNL
From the text: GAL4 DBD-CfEcR(DEF)/VP16AD-MmRXRE: The wild-type D, E, and F domains from spruce budworm Choristoneura fumiferana EcR (“CfEcR-DEF”; SEQ ID NO: 1) were fused to a GAL4 DNA binding domain (“Gal4 DBD1-147”; nucleotides 31 to 471 of SEQ ID NO: 2) and placed under the control of the SV40e promoter of pM vector (PT3119-5, Clontech, Palo Alto, Calif.). The D and E domains from Mus Musculus RXR (“MmRXR-DE”; SEQ ID NO: 10) were fused to the transactivation domain from VP16 (“VP16AD”; SEQ ID NO: 5) and placed under the control of the SV40e promoter of the pVP16 vector (PT3127-5, Clontech, Palo Alto, Calif.).
CHO cells were transienty transfected with transcription cassettes for GAL4 DBD-CfEcR(DEF) and for VP16AD-MmRXRE controlled by SV40e promoters. Stably transfected cells were selected using Hygromycin. Individually isolated CHO cell clones were transiently transfected with a GAL4 RE-luciferase reporter (pMR-Luc, Stratagene, La Jolla, Calif.). The 13B3 clone was selected using Zeocin.
Cells were trypsinized and diluted to a concentration of 2.5×10^4 cells mL. 100 μL of cell suspension was placed in each well of a 96 well plate and incubated at 37° C. under 5% CO2 for 24 h. Ligand stock solutions were prepared in DMSO and diluted 300 fold for all treatments. Dose response testing consisted of 8 concentrations ranging from 33 μM to 0.01 μM.
Luciferase reporter gene expression was measured 48 h after cell treatment using Bright-Glo™ Luciferase Assay System from Promega (E2650). Luminescence was detected at room temperature using a Dynex MLX microtiter plate luminometer.
Fold inductions were calculated from single dose testing by dividing relative light units (RLU) in ligand treated cells by RLU in DMSO treated cells. BC50s were calculated from dose response data using a three-parameter logistic model.

[3] = average; dose response, three-parameter logistic model; read-out: Z3 LC50
[4] = maximum fold induction at any concentration relative to that of GS-E ligand
[5] = single dose 33 μM; ligand treated / DMSO treated cells
[6] = read-out: Fold Induction Average, Z3 Assay (33 μM)
[7] = read-out: Z3 LC50; average; dose response, three-parameter logistic model

Row | SMILES | Fold Induction Average, Z3 Assay (33 μM) [1, 5] | Fold Induction Average, 13B3 Assay (33 μM) [2] | further results
1 | COc1cccc(C(=O)NC2(C(=O)c3ccccc3)CCCC2)c1C [Example 1] | 71 |  | CC50 [1, 3]: 2.67 µM; Z3 Rel Max FI [1, 4]: 0.14; 13B3 Rel Max FI [2]: 0.00; EC50 ([2]; read-out: 13B3 EC50, average, dose response, three-parameter logistic model): > 33 µM; Fold Induction Average, 13B3 Assay (33 μM) ([2]; single dose 33 μM, RLU ligand treated / RLU DMSO treated cells): 3
2 | COc1cccc(C(=O)NC2(C(=O)c3cccc(C)c3)CCCC2)c1C [Example 2] |  |  | Z3 Rel Max FI [1, 4]: 0.46; fold induction at 33 µM [1, 6]: 786; CC50 [1, 7]: 3.38 µM; EC50 [2]: > 33 µM; fold induction at 33 µM [2]: 2620; 13B3 Rel Max FI [2]: 0.24
3 | CCc1ccc(C(=O)NC2(C(=O)c3ccccc3)CCCC2)cc1 [Example 3] |  |  | EC50 [2]: > 33 µM; 13B3 Rel Max FI [2]: 0.00
4 | COc1cccc(C(=O)C2(NC(=O)c3cccc(OC)c3C)CCCC2)c1 [Example 5] |  |  | EC50 [2]: > 33 µM; 13B3 Rel Max FI [2]: 0.02
5 | COc1cccc(C(=O)NC2(C(=O)c3cccc(C)c3)CCC2)c1C [Example 6] |  |  | Z3 Rel Max FI [1, 4]: 0.05; fold induction at 33 µM [1, 6]: 82; CC50 [1, 7]: 10.7 µM; EC50 [2]: > 33 µM; fold induction at 33 µM [2]: 1; 13B3 Rel Max FI [2]: 0.00
6 | COc1cccc(C(=O)NC(C)(Cc2ccccc2)C(=O)c2cccc(C)c2)c1C (stereo not drawn) [Example 8] | 15 | 2 | 
7 | COc1cccc(C(=O)NC2(C(=O)c3cccc(C)c3)CC2)c1C [Example 9] | 12 | 0 | 
8 | COc1cccc(C(=O)NC(C)(Cc2ccccc2)C(=O)c2ccc(C)cc2)c1C (stereo not drawn) [Example 16] | 10 | 0 | 
9 | COc1cccc(C(=O)NC2(C(=O)c3ccc(F)c(C)c3)CC2)c1C [Example 19] | 6 | 0 | 
10 | Cc1c(C(=O)NC2(C(=O)c3ccccc3)CCCC2)ccc2c1OCO2 [Example 23] | 32 | 2 | 
11 | COc1cccc(C(=O)NC2(C(=O)c3ccc(C)cc3)CC2)c1C [Example 24] | 11 | 87 | 
12 | COc1cccc(C(=O)NC2(C(=O)c3cccc(C)c3)CCC3(CC2)OCCO3)c1C [Example 35] | 9 | 2 | 
13 | CCC(CC)(NC(=O)c1cccc(OC)c1C)C(=O)c1ccccc1C [Example 36] | 4 | 0 | 
14 | COc1cccc(C(=O)NC2(C(=O)c3ccccc3C)CCCC2)c1C [Example 39] | 30 | 24 | 
15 | COc1ccc(C(=O)C2(NC(=O)c3cccc(OC)c3C)CCCC2)cc1 [Example 41] | 4 | 2 | 
16 | COc1cccc(C(=O)NC2(C(=O)c3ccc4c(c3)OCO4)CCCC2)c1C [Example 43] | 3 | 2 | 
17 | COc1cccc(C(=O)NC2(C(=O)c3ccc4c(c3)OCO4)CCCCC2)c1C [Example 47] | 21 | 3 | 
18 | COc1cccc(C(=O)NC(C)(CC(C)C)C(=O)c2ccc(F)c(C)c2)c1C (stereo not drawn) [Example 54] | 41 | 0 | 
19 | COc1cccc(C(=O)NC(C(=O)c2cccc(C)c2)(c2ccccc2)C(C)C)c1C (stereo not drawn) [Example 57] | 8 | 0 | 
20 | CCC(CC)(NC(=O)c1cccc(OC)c1C)C(=O)c1ccc(OC)cc1 [Example 58] | 4 | 4 | 
21 | CCC(CC)(NC(=O)c1cccc(OC)c1C)C(=O)c1ccc2c(c1)OCO2 [Example 59] | 2 | 0 | 
22 | Cc1nc2ncc(C(=O)NC3(C(=O)c4ccccc4)CCCC3)c(C)n2n1 [Example 103] |  | 0 | 
23 | CCc1ccc(C(=O)NC2(C(=O)c3cc(C)cc(C)c3)CCCCC2)cc1 [Example 175] |  |  | CC50 [1, 3]: 1.51 µM; Z3 Rel Max FI [1, 4]: 0.63
